Several values for one entry are separate records, joined by “and”; a condition that tells them apart may be missing. Identical values can stand only once. Inconclusive results and toxic doses are left out.
Tested on: CD2F1 mice, L1210 leukemia ip, survival T/C
Experiment: NCI In Vivo Anticancer Drug Screen. Data for tumor model L1210 Leukemia (intraperitoneal) in CD2F1 (CDF1) mice
Conditions: higher = longer survival
Summary of the method: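 Vehicle-treated tumor-bearing mice served as controls (C) for compound-treated mice (T). Reported figure is T divided by C.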

[1] = endpoint: mean survival time, dose: 100.0 mg/kg/injection, schedule: Q04DX003 (ip), vehicle: saline with Tween-80
[2] = endpoint: mean survival time, dose: 200.0 mg/kg/injection, schedule: Q04DX003 (ip), vehicle: saline with Tween-80
[3] = endpoint: mean survival time, dose: 400.0 mg/kg/injection, schedule: Q04DX003 (ip), vehicle: saline with Tween-80
[4] = endpoint: mean survival time, dose: 100.0 mg/kg/injection, schedule: Q01DX009 (ip), vehicle: saline with Tween-80
[5] = endpoint: mean survival time, dose: 200.0 mg/kg/injection, schedule: Q01DX009 (ip), vehicle: saline with Tween-80
[6] = endpoint: mean survival time, dose: 400.0 mg/kg/injection, schedule: Q01DX009 (ip), vehicle: saline with Tween-80

## O=C(NNC(=O)c1cccc(C(=O)NNC(=O)c2ccc(Cl)c(Cl)c2)n1)c1ccc(Cl)c(Cl)c1
endpoint: median survival time, dose: 43.2 mg/kg/injection, schedule: Q01DX005 (ip), vehicle: Klucel (hydroxypropylcellulose) (HPC)
  T/C: 110 % of control
endpoint: median survival time, dose: 72.0 mg/kg/injection, schedule: Q01DX005 (ip), vehicle: Klucel (hydroxypropylcellulose) (HPC)
  T/C: 115 % of control
endpoint: median survival time, dose: 120.0 mg/kg/injection, schedule: Q01DX005 (ip), vehicle: Klucel (hydroxypropylcellulose) (HPC)
  T/C: 115 % of control and 116 % of control
endpoint: median survival time, dose: 200.0 mg/kg/injection, schedule: Q01DX005 (ip), vehicle: Klucel (hydroxypropylcellulose) (HPC)
  T/C: 120 % of control and 86 % of control
endpoint: median survival time, dose: 333.33 mg/kg/injection, schedule: Q01DX005 (ip), vehicle: Klucel (hydroxypropylcellulose) (HPC)
  T/C: 92 % of control

## O=C(Nc1cccnc1)c1ccc([N+](=O)[O-])s1
endpoint: mean survival time, dose: 50.0 mg/kg/injection, schedule: Q01DX005 (ip), vehicle: saline + alcohol
  T/C: 111 % of control
endpoint: mean survival time, dose: 50.0 mg/kg/injection, schedule: Q01DX005 (ip), vehicle: saline
  T/C: 110 % of control
endpoint: mean survival time, dose: 100.0 mg/kg/injection, schedule: Q01DX005 (ip), vehicle: saline + alcohol
  T/C: 121 % of control
endpoint: mean survival time, dose: 100.0 mg/kg/injection, schedule: Q01DX005 (ip), vehicle: saline
  T/C: 160 % of control
endpoint: mean survival time, dose: 200.0 mg/kg/injection, schedule: Q01DX005 (ip), vehicle: saline + alcohol
  T/C: 107 % of control
endpoint: mean survival time, dose: 200.0 mg/kg/injection, schedule: Q01DX005 (ip), vehicle: saline
  T/C: 122 % of control
endpoint: median survival time, dose: 25.0 mg/kg/injection, schedule: Q01DX005 (ip), vehicle: saline
  T/C: 119 % of control
endpoint: median survival time, dose: 36.0 mg/kg/injection, schedule: Q01DX005 (ip), vehicle: saline
  T/C: 115 % of control
endpoint: median survival time, dose: 50.0 mg/kg/injection, schedule: Q01DX005 (ip), vehicle: saline
  T/C: 116 % of control
endpoint: median survival time, dose: 60.0 mg/kg/injection, schedule: Q01DX005 (ip), vehicle: saline
  T/C: 121 % of control

## CC(=O)NN1C(=O)c2ccccc2C1=O
endpoint: mean survival time, dose: 100.0 mg/kg/injection, schedule: Q04DX003 (ip), vehicle: Klucel (hydroxypropylcellulose) (HPC)
  T/C: 98 % of control
endpoint: mean survival time, dose: 200.0 mg/kg/injection, schedule: Q04DX003 (ip), vehicle: Klucel (hydroxypropylcellulose) (HPC)
  T/C: 98 % of control
endpoint: mean survival time, dose: 400.0 mg/kg/injection, schedule: Q04DX003 (ip), vehicle: Klucel (hydroxypropylcellulose) (HPC)
  T/C: 98 % of control

## CNC(=S)NNC(=O)C(=O)NNC(=S)NC
endpoint: mean survival time, dose: 100.0 mg/kg/injection, schedule: Q01DX001 (ip), vehicle: saline with Tween-80
  T/C: 98 % of control
endpoint: mean survival time, dose: 200.0 mg/kg/injection, schedule: Q01DX001 (ip), vehicle: saline with Tween-80
  T/C: 98 % of control
endpoint: mean survival time, dose: 400.0 mg/kg/injection, schedule: Q01DX001 (ip), vehicle: saline with Tween-80
  T/C: 97 % of control

## C1=C(c2ccc(-c3ccccc3)cc2)Nc2ccccc2S1
endpoint: mean survival time, dose: 100.0 mg/kg/injection, schedule: Q04DX002 (ip), vehicle: other
  T/C: 107 % of control
endpoint: mean survival time, dose: 200.0 mg/kg/injection, schedule: Q04DX002 (ip), vehicle: other
  T/C: 107 % of control

## O=C1c2ccccc2C(=O)N1c1ccccc1-c1ccccc1
[1]
  T/C: 100 % of control
[2]
  T/C: 92 % of control
[3]
  T/C: 100 % of control

## N#CCC(=O)OCCCCOC(=O)CC#N
[4]
  T/C: 96 % of control
[1]
  T/C: 103 % of control
[5]
  T/C: 97 % of control
[2]
  T/C: 97 % of control
[6]
  T/C: 96 % of control
[3]
  T/C: 100 % of control

## Cc1ccc(C)n1-c1ccccc1
endpoint: mean survival time, dose: 100.0 mg/kg/injection, schedule: Q01DX009 (ip), vehicle: saline + alcohol
  T/C: 107 % of control
[1]
  T/C: 103 % of control
endpoint: mean survival time, dose: 200.0 mg/kg/injection, schedule: Q01DX009 (ip), vehicle: saline + alcohol
  T/C: 105 % of control
[2]
  T/C: 106 % of control
endpoint: mean survival time, dose: 400.0 mg/kg/injection, schedule: Q01DX009 (ip), vehicle: saline + alcohol
  T/C: 100 % of control
[3]
  T/C: 95 % of control

## CCCc1nc2ccccc2c(=O)n1/N=C/c1ccsc1
endpoint: mean survival time, dose: 100.0 mg/kg/injection, schedule: Q01DX009 (ip), vehicle: saline sonified
  T/C: 100 % of control
endpoint: mean survival time, dose: 200.0 mg/kg/injection, schedule: Q01DX009 (ip), vehicle: saline sonified
  T/C: 102 % of control
endpoint: mean survival time, dose: 400.0 mg/kg/injection, schedule: Q01DX009 (ip), vehicle: saline sonified
  T/C: 93 % of control

## O=C1CCn2c3ccccc3c3cccc1c32
[4]
  T/C: 101 % of control
[5]
  T/C: 101 % of control
[6]
  T/C: 96 % of control
